Measurements: article PMC4721540, “Selective activators of protein phosphatase 5 target the auto-inhibitory mechanism” (Bioscience Reports, 2015)
Numbering of substitutions follows the chain as printed. Entries after “also recorded” stand apart in the source; their conditions may differ.

Legend:
PP5 428–430/455–457 = biological target: T1, PP5 428–430/455–457 (Rattus norvegicus, UniProt P53042, E428A/K430A/M455A/N457A/V429A); experiment: pNPP phosphatase assay with PP5 428–430/455–457 mutant; assay type: biochemical; settings: compound at 100 μM
T1 construct: made in house; host or cells: E. coli BL21-CodonPlus (DE3)-RIL
T1 sequence (P53042 1-499 E428A/V429A/K430A/M455A/N457A): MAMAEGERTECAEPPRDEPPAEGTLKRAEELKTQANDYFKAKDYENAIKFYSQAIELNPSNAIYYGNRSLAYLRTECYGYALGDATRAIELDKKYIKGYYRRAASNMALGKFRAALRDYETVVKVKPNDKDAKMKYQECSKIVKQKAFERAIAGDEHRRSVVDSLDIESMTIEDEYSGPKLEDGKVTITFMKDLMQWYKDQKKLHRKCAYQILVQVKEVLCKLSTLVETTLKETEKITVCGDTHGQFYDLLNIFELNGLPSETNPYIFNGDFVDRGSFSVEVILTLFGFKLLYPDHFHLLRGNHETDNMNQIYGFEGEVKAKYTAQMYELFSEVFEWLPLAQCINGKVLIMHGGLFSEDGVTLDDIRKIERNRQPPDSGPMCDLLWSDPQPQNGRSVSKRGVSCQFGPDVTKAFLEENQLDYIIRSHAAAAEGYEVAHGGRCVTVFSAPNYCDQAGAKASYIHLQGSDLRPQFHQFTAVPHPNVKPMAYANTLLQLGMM
Description: (§1) Cloning and purification of PPH-5 (protein phosphatase homologue), CeHsp90/DAF-21 (abnormal DAuer formation), YFP-CeHsp90/DAF-21, BAG-1 (Bcl-2 associated athanogene-1), DNJ-13 (DNJ-13 homologue) and CeHsc70 (C. elegans heat shock cognate 70) were performed as described before. The human phosphatases PP1, PP2A and PP2B/PP3 were purified as described. The expression clones of rat PP5, PP5-ΔN165 (166–499) and PP5-ΔC8 (1–491) were generated by PCR and insertion of the DNA into the pET28 vector. Expression clones of PP5 428–430, which contains A^428-A^429-A^430 instead of E^428-V^429-K^430 and PP5 […], which contains A^428-A^429-A^430 instead of E^428-V^429-K^430 and A^455-G^456-A^457 instead of M^455-G^456-N^457, were also generated by PCR using primer sequences containing the modified codons. PCR-products were inserted into the pET28b expression plasmid (Merck) and verified by DNA sequencing (GATC Biotech). Proteins were expressed in BL21-CodonPlus (DE3)-RIL bacteria (Stratagene). Bacterial cultures were grown to a D600 of 0.8 and induced with 1 mM IPTG. Cells were disrupted using a cell disruption machine (IUL Instruments) and the lysate was loaded on to a HisTrap FF column (GE Healthcare). […] Protein purity was assessed by SDS/PAGE and the molecular mass was determined on an UltraFlex III MALDI-TOF/TOF mass spectrometer (Bruker). […]

PP5 428–430 = biological target: T2, PP5 428–430 (Rattus norvegicus, UniProt P53042, E428A/K430A/V429A); experiment: pNPP phosphatase assay with PP5 428–430 mutant; assay type: biochemical; settings: compound at 100 μM
T2 construct: made in house; host or cells: E. coli BL21-CodonPlus (DE3)-RIL
T2 sequence (P53042 1-499 E428A/V429A/K430A): T1 sequence (P53042 1-499 E428A/V429A/K430A/M455A/N457A) with A455M, A457N
Description: as §1

PPH-5 = biological target: T3, PPH-5 (Caenorhabditis elegans, UniProt Q9NES8); experiment: Relaxation-edited NMR binding to PPH-5; design: species or system C. elegans; settings: 10 μM PPH-5, phosphate buffer, 20°C, no substrate
T3 construct: made in house
T3 sequence (Q9NES8 1-496): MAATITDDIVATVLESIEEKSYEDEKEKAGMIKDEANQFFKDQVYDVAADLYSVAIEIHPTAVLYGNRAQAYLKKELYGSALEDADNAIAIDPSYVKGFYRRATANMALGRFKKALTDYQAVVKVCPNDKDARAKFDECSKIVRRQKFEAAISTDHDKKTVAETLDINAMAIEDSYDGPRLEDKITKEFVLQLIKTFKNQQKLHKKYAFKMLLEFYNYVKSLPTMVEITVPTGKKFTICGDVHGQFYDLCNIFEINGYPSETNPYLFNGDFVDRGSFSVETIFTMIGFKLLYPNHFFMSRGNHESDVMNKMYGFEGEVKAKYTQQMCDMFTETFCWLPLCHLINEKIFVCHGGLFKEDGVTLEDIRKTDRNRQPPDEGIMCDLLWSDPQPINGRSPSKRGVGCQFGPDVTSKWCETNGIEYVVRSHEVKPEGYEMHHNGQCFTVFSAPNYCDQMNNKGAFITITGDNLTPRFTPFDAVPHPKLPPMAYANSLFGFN
Description: NMR experiments were performed on an 800 MHz spectrometer (Bruker) with cryoprobe. The measurements were done in ^2H2O with phosphate buffer (4 mM KH2PO4, 16 mM Na2HPO4, 120 mM NaCl, pH 7.4) and 1%–5% of d6-DMSO. P5SA-2 without protein was recorded in high sensitivity experiments with a high number of scans. The CPMG sequence with an additional Watergate to suppress residual water was used. The T2 filtering time was set to 400 ms to suppress signals from slowly tumbling molecules. Peak intensities were normalized by comparing residual DMSO peaks. PPH-5 was added as indicated.

| SMILES | stimulation of PP5 428–430/455–457 (PP5 428–430/455–457) | stimulation of PP5 428–430 (single-loop mutant) (PP5 428–430) | direct binding to PPH-5 by NMR (PPH-5) |
| --- | --- | --- | --- |
| COc1ccc(-c2nc(Cc3ccc(Cl)cc3)no2)cc1OC [P5SA-2] | could not observe any stimulation | no activation could be achieved | confirms binding of P5SA-2 to PPH-5 |
| CNC(=O)c1c(NC(=O)COCC(=O)Nc2sc3c(c2C(=O)NC)CCC3)sc2c1CCC2 [P5SA-5] | could not detect stimulation; also recorded: did not stimulate the catalytic activity | did not stimulate the catalytic activity |  |
